The values below come from paper PMC5503199 (Molecular microbiology, 2009).

Assay [1] deals with P. syringae pv. tomato DC3000. The class given is cell-based, Pseudomonas syringae pv. tomato. The conditions noted are these: for uptake rate: DC3000 grown without choline and betaine as inducers, substrate 10 μM.
For assay [2], the system named is CbcXWV from P. aeruginosa PAO1. The class given is cell-based, Pseudomonas aeruginosa. Conditions: MKH13, pCbcPAO1; radiolabelled substrate 1 mM; mean (SE), n = 10.
Another assay concerns CbcXWV from DC3000. The assay is classed as cell-based, Pseudomonas syringae pv. tomato. The conditions noted are these: Acella, pET-cbcDC3000; 1 mM IPTG; substrate 1 mM; mean (SE), n = 10.
For assay [3], the system named is cbcXWV from DC3000 in QAC transporter-deficient BT strain. The assay is classed as cell-based, Pseudomonas syringae pv. tomato. The conditions noted are these: BT(pCbcDC3000), unlabelled competitor 0.5 mM, 10 min.
Assay [4] has as its system P. syringae BT-derived mutants. The class given is cell-based, Pseudomonas syringae pv. syringae. Conditions: pN.
The test system of assay [5] is Cbc core transporter CbcWV (PAO1) with chromosomally encoded SBPs. The assay is classed as cell-based, Pseudomonas aeruginosa. Conditions: pNcbcWV.
Another assay has as its system CbcWV with CaiXPAO1. The assay is classed as cell-based, Pseudomonas aeruginosa. Conditions: MKH13; pNcbcWV, pT-PA5388; SBP CaiXPAO1; substrate 10 μM; single replication.
In another assay the test system is CbcWV with BetXPAO1. The class given is cell-based, Pseudomonas aeruginosa. Conditions: MKH13; pNcbcWV, pT-PA3236; SBP BetXPAO1; substrate 10 μM; single replication.
Another assay relates to CbcWV with BetXB728a. The class given is cell-based, Pseudomonas syringae pv. syringae. Conditions: MKH13; pNcbcWV, pT-B3758; SBP BetXB728a; substrate 10 μM; single replication.
Assay [6] addresses T1, CbcX with CbcWV (Pseudomonas aeruginosa, UniProt Q9HTI6). Description: Competitive uptake, MKH13 expressing cbcXWV. The conditions noted are these: MKH13, pNcbcXWV, SBP CbcX, competitor 1 mM. The class given is cell-based.
In assay [7] the target is T2, ChoXWV (Sinorhizobium meliloti, UniProt Q92N37).
T2 sequence (Q92N37 28-318): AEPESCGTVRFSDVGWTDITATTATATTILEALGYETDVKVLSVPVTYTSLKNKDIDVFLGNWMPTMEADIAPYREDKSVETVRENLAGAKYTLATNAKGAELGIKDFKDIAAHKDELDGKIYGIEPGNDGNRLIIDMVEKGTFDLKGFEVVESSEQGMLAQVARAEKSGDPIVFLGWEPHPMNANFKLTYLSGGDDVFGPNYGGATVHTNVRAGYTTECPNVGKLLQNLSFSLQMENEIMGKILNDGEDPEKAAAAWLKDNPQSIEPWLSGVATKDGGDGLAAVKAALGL
T2 sequence (Q92N36 1-281 partner): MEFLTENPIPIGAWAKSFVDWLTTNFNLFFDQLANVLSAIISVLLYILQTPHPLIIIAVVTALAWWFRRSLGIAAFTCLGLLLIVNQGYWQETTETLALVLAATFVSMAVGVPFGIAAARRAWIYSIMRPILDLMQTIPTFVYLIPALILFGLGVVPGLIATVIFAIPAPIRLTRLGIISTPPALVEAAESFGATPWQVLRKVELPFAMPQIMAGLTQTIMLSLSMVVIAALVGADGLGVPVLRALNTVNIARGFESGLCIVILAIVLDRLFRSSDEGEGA
T2 sequence (Q92N35 1-349 partner): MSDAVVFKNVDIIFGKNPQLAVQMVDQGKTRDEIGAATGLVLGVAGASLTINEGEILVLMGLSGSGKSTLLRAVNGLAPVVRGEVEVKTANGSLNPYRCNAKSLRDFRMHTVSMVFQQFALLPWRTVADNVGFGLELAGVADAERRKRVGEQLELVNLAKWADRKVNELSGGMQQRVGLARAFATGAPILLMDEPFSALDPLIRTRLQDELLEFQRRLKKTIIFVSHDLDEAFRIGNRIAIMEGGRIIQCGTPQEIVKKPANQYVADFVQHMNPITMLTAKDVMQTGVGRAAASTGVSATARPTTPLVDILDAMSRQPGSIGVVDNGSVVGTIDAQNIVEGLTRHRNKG
Description: Competitive uptake, MKH13 expressing choXWV. The assay is classed as cell-based. The conditions noted are these: pNchoXWV, SBP ChoX, [^14C]choline 10 μM, competitor 1 mM.

For assay [8], the target named is T1, CbcX with CbcWV.
Assay [9] has as its target T2, ChoXWV. Description: Uptake kinetics, MKH13. Conditions: MKH13, pNchoXWV; SBP ChoX; mean (SE), n = 4.
Setting [10] is: host BT2916Ko, substrate 10 μM, single replication.
[11] abbreviates: host BT0028Ko, substrate 10 μM, mean (SE), n = 2.
Where [12] appears, read: host BT3758Ko, substrate 10 μM, mean (SE), n = 3.
Where [13] appears, read: host BT2916Ko, substrate 1 mM, single replication.

Several values for one entry are separate records, joined by “and”; a condition that tells them apart may be missing. Equal values may be shown once. Read-outs that look alike come from different tables or passages of the source.

In the case of `C[N+](C)(C)CC(=O)O` [Betaine, glycine betaine], in assay [1] (DC3000 grown with 10 mM choline or betaine as inducers), the “increase of initial uptake rate after growth with inducer” value was “three- to fourfold”. Also, the uptake rate in assay [1] is 0.6 nmol min^−1 (mg protein)^−1. Moreover, the Total uptake in assay [2] was 5.8 (1.1) nmol (mg protein)^−1; in the assay with CbcXWV from DC3000, 17.0 (1.8) nmol (mg protein)^−1; in assay [4] (host BT0028Ko, substrate 10 μM) it was 0.0 nmol (mg protein)^−1; in assay [4] (setting [10]), 0.0 nmol (mg protein)^−1; in [4] (host BT3758Ko, substrate 10 μM) it was 0.0 nmol (mg protein)^−1; in assay [5] (setting [11]), 17.2 (0.2) nmol (mg protein)^−1. In addition, the Total uptake was 17.2 nmol (mg protein)^−1 in assay [5] (setting [10]); 0.1 (0.01) nmol (mg protein)^−1 in [5] (setting [12]); 0 nmol (mg protein)^−1 in the assay with CbcWV with CaiXPAO1; 21.6 nmol (mg protein)^−1 with CbcWV with BetXPAO1; 11.9 nmol (mg protein)^−1 with CbcWV with BetXB728a. Also, the “% inhibition of uptake of [^14C]substrate” value in assay [3] ([^14C]betaine 5 μM) turned out to be 89%; in assay [3] ([^14C]carnitine 5 μM), 88%; in assay [3] ([^14C]choline 5 μM), 12%. In addition, the “% inhibition of uptake of substrate by unlabelled competitor” value (“% inhibition of uptake of substrate” for short) on CbcX with CbcWV [6] ([^14C]betaine 10 μM) was 87%; at CbcX with CbcWV [6] ([^14C]choline 10 μM), “not inhibited”; at CbcX with CbcWV [6] ([^14C]choline 10 μM, listed as Bet), 2%; on ChoXWV [7] it was 3%. Further, the “fold lower affinity of CbcX for betaine than choline” value on CbcX with CbcWV [8] is reported as “approximately 10 fold”. Also, the “maximal rate of uptake (Vmax)” value on CbcX with CbcWV [8] (MKH13, pNcbcXWV, SBP CbcX, mean (SE), n = 4) is 11.6 (0.6) nmol min^−1 (mg protein)^−1; on CbcX with CbcWV [8] (MKH13, pNcbcXWV, SBP CbcX, mean (SE), n = 4, listed as betaine), 11.6 nmol min^−1 (mg protein)^−1.
For `C[N+](C)(C)C[C@H](O)CC(=O)[O-]` [Carnitine, L-carnitine], the Total uptake was 0.8 (0.4) nmol (mg protein)^−1 in [2]; 0.59 (0.82) nmol (mg protein)^−1 in the assay on CbcXWV from DC3000; 0.0 nmol (mg protein)^−1 in [4] (host BT0028Ko, substrate 10 μM); 0.1 nmol (mg protein)^−1 in [4] (setting [10]); 0.0 nmol (mg protein)^−1 in [4] (host BT3758Ko, substrate 10 μM); 16.3 (0.91) nmol (mg protein)^−1 in assay [5] (setting [11]). Moreover, the Total uptake in [5] (setting [10]) was 0.3 nmol (mg protein)^−1; in [5] (setting [12]), 15.1 (0.16) nmol (mg protein)^−1; with CbcWV with CaiXPAO1, 3.8 nmol (mg protein)^−1; in the assay on CbcWV with BetXPAO1, 0 nmol (mg protein)^−1; in the assay on CbcWV with BetXB728a, 0 nmol (mg protein)^−1. Besides, the “% inhibition of uptake of [^14C]substrate” value in assay [3] ([^14C]betaine 5 μM) is reported as −2%; in assay [3] ([^14C]carnitine 5 μM) it was 94%; in [3] ([^14C]choline 5 μM), −6%. The “% inhibition of uptake of substrate” value worked out at 3% on CbcX with CbcWV [6] ([^14C]betaine 10 μM), 6% at CbcX with CbcWV [6] ([^14C]choline 10 μM) and 41% on ChoXWV [7].
Consider `C[N+](C)(C)CCO` [Choline, choline], for which the “increase of initial uptake rate after growth with inducer” value in [1] is “three- to fourfold”. The uptake rate in assay [1] is reported as 1.8 nmol min^−1 (mg protein)^−1. For the same compound, the Total uptake in assay [2] is given as 12.1 (1.1) nmol (mg protein)^−1; in the assay with CbcXWV from DC3000, 15.0 (2.4) nmol (mg protein)^−1; in assay [4] (host BT0028Ko, substrate 10 μM), 0.0 nmol (mg protein)^−1; in assay [4] (host BT0028Ko, substrate 1 mM) it was 0 nmol (mg protein)^−1; in assay [4] (setting [10]), 0.0 nmol (mg protein)^−1; in assay [4] (setting [13]), 0 nmol (mg protein)^−1. The Total uptake is recorded as 0.0 nmol (mg protein)^−1 in assay [4] (host BT3758Ko, substrate 10 μM); 0 nmol (mg protein)^−1 in assay [4] (host BT3758Ko, substrate 1 mM); 0.11 (0.05) nmol (mg protein)^−1 in assay [5] (setting [11]); 8.9 (1.4) nmol (mg protein)^−1 in assay [5] (host BT0028Ko, substrate 1 mM, mean (SE), n = 2); 0.15 nmol (mg protein)^−1 in assay [5] (setting [10]); 8.6 nmol (mg protein)^−1 in [5] (setting [13]). Further, the Total uptake is 0.15 (0.05) nmol (mg protein)^−1 in assay [5] (setting [12]); 7.1 (0.6) nmol (mg protein)^−1 in [5] (host BT3758Ko, substrate 1 mM, mean (SE), n = 3); 0 nmol (mg protein)^−1 in the assay on CbcWV with CaiXPAO1; 0 nmol (mg protein)^−1 in the assay with CbcWV with BetXPAO1; 0 nmol (mg protein)^−1 in the assay on CbcWV with BetXB728a. Further, the results for the “% inhibition of uptake of [^14C]substrate” value in assay [3] ([^14C]betaine 5 μM), in assay [3] ([^14C]carnitine 5 μM) and in assay [3] ([^14C]choline 5 μM) were −6%, 81% and 89%, respectively. Further, the entries for the “% inhibition of uptake of substrate” value at CbcX with CbcWV [6] ([^14C]betaine 10 μM), at CbcX with CbcWV [6] ([^14C]choline 10 μM) and on ChoXWV [7] were 99%, 92% and 98%, respectively. Further, the “maximal rate of uptake (Vmax)” value at CbcX with CbcWV [8] is 34.6 nmol min^−1 (mg protein)^−1 and 34.6 (2.2) nmol min^−1 (mg protein)^−1; on ChoXWV [9], 1.2 (0.05) nmol min^−1 (mg protein)^−1.
